Experimental data: ChEMBL document CHEMBL3044822, “Carpropamid, a New Fungicide for Rice Blast Control” (1998)

Tested on: Pyricularia oryzae
Assay: Fungicidal activity against Magnaporthe oryzae in 7 days old young rice seedlings compound sprayed 1 day after inoculation assessed as efficacy against blast disease measured as lesion level at 200 ppm measured after 7 days of inoculation
Assay type: functional

| SMILES | Efficacy |
| --- | --- |
| CC1(C)C(COC(=O)Nc2ccccc2)C1(Cl)Cl (stereo not drawn) | <5% |
| CC1(C)C(COC(=O)c2ccccc2)C1(Cl)Cl (stereo not drawn) | <5% |
| CC1(C)C(C(=O)Oc2ccccc2)C1(Cl)Cl (stereo not drawn) | <20% |
| CCC1(CC)C(C(=O)O)C1(Cl)Cl (stereo not drawn) | <30% |
| CC(NC(=O)C1(C)C(C)(C)C1(Cl)Cl)c1ccc(Cl)cc1 (stereo not drawn) | 0% |
| CC1(C)C(C#N)C1(Cl)Cl (stereo not drawn) | <30% |
| CC(NC(=O)C1(C)C(C)(C)C1(Cl)Cl)c1ccc(Br)cc1 (stereo not drawn) | 0% |
| CC[C@]1(C(=O)NC(C)c2ccc(Cl)cc2)[C@H](C)C1(Cl)Cl (stereo partly drawn) [CARPROPAMID] | 0% |
| CC1(C)C(C(=O)O)C1(Cl)Cl (stereo not drawn) | <5% |
| CC1(C)C(Cl)(Cl)C1(C)C(=O)O (stereo not drawn) | <20% |
| CNC(=O)C1C(C)(C)C1(Cl)Cl (stereo not drawn) | <40% |
| CC1(C)C(C(N)=O)C1(Cl)Cl (stereo not drawn) | <20% |
| CC(NC(=O)C1(C)C(C)(C)C1(Cl)Cl)c1ccccc1 (stereo not drawn) | <5% |
| CC(NC(=O)C1(C(C)C)CC1(Cl)Cl)c1ccc(Cl)cc1 (stereo not drawn) | 0% |
| CC1(C)C(C(=O)Nc2ccccc2)C1(Cl)Cl (stereo not drawn) | >40% |
| CCOC(=O)C1C(C)(C)C1(Cl)Cl (stereo not drawn) | <5% |
| CC1(C)C(CO)C1(Cl)Cl (stereo not drawn) | <5% |

Tested on: Pyricularia oryzae
Assay: Fungicidal activity against Magnaporthe oryzae in 7 days old young rice seedlings compound sprayed 1 day after inoculation assessed as efficacy against blast disease measured as lesion level at 50 ppm measured after 7 days of inoculation
Assay type: functional

| SMILES | Efficacy |
| --- | --- |
| C[C@H](NC(=O)C1(C)C(C)(C)C1(Cl)Cl)c1ccc(Br)cc1 (stereo in doubt; 17(Sl)) | <20% |
| C[C@@H](NC(=O)C1(C)C(C)(C)C1(Cl)Cl)c1ccc(Br)cc1 (stereo in doubt; 17(Rd)) | 0% |
| CC(NC(=O)C1(C)C(C)(C)C1(Cl)Cl)c1ccc(Br)cc1 (stereo not drawn) | 0% |
| C[C@@H](NC(=O)C1(C)C(C)(C)C1(Cl)Cl)c1ccc(Br)cc1 (stereo in doubt; 17(Rl)) | <5% |
| CC[C@]1(C(=O)NC(C)c2ccc(Cl)cc2)[C@H](C)C1(Cl)Cl (mixture of isomers) [CARPROPAMID] | 0% |
| CC[C@]1(C(=O)N[C@H](C)c2ccc(Cl)cc2)[C@H](C)C1(Cl)Cl [trans-Carpropamid] | 0% |
